Earlier results on 19 molecules are cited in patent US20130303466A1, “Chemosensory Receptor Ligand-Based Therapies” (ELCELYX THERAPEUTICS, INC., priority 2010, published 2013).

In series [1] the test system is gut hormone release. As to conditions: humans, instillation into the duodenum.
The target of series [2] is T1, sweet receptor (Homo sapiens, UniProt Q7RTX0+Q8TE23).
T1 sequence (Q8TE23 20-839): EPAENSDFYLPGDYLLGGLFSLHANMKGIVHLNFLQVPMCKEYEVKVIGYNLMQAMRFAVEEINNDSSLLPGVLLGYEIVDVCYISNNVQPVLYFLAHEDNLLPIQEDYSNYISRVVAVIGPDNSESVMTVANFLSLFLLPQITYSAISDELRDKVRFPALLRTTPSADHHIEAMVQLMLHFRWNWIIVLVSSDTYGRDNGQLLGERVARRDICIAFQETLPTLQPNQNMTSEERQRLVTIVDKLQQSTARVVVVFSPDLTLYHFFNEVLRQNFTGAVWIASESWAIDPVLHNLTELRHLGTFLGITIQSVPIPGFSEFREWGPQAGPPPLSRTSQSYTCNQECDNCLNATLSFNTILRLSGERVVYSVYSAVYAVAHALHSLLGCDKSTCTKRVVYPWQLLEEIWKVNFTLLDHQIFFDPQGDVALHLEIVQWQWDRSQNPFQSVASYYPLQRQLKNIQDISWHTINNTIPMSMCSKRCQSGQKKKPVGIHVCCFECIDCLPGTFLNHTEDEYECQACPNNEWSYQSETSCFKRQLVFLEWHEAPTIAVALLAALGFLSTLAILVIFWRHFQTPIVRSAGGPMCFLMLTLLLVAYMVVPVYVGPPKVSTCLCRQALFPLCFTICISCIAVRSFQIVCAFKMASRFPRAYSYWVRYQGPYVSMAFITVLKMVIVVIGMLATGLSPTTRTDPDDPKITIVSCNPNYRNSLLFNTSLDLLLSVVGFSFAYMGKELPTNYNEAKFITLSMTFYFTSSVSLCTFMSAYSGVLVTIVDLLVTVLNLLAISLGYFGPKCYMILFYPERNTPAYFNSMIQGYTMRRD
T1 sequence (Q7RTX0 21-852): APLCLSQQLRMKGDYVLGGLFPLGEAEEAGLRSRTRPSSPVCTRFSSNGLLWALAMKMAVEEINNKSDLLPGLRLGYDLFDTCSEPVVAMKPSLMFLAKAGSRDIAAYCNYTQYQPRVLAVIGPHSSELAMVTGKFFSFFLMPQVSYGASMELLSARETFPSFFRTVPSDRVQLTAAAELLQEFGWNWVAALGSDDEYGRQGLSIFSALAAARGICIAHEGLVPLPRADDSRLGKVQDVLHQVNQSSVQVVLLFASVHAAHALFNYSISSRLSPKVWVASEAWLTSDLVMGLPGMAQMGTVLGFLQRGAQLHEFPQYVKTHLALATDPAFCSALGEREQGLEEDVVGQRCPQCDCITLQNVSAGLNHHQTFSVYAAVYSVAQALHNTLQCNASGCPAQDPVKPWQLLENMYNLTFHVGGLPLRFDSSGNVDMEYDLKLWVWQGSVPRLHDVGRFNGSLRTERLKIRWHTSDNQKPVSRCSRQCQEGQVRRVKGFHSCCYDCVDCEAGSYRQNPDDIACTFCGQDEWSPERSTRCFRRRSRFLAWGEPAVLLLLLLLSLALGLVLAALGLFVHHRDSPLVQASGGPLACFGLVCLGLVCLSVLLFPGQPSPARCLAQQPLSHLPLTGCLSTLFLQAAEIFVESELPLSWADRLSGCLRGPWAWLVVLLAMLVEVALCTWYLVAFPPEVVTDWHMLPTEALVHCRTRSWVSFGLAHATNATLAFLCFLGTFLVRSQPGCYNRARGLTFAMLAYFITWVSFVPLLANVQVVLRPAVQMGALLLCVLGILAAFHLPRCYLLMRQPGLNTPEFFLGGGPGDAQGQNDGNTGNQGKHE
To be noted: relative sweetness on a weight comparison basis to sucrose (= 1.0); ranges: relative sweetness varied with the concentration of sucrose; adapted from Kim et al., 2002.

The subject of series [3] is GLP-1. To be noted: rats; with administration of a DPP-IV inhibitor.

On to `OC[C@H]1O[C@H](O[C@]2(CCl)O[C@H](CCl)[C@@H](O)[C@@H]2O)[C@H](O)[C@@H](O)[C@H]1Cl` [sucralose], for which the gut hormone release entry in series [1] was “no effect”.
Consider `C=C1C[C@@]23CC[C@H]4[C@@](C)(CCC[C@@]4(C)C(=O)O)[C@@H]2CC[C@]1(O[C@@H]1O[C@H](CO)[C@@H](O)[C@H](O)[C@H]1O[C@@H]1O[C@H](CO)[C@@H](O)[C@H](O)[C@H]1O)C3` [Steviolbioside (22), Steviolbioside], for which, in series [2], the Sweetness/potency is on record as 90.
Regarding Dulcoside A [Dulcoside A (15)], the Sweetness/potency in series [2] is on record as 30.
Consider `CC1(C)C[C@H]2C3=CC[C@@H]4[C@@]5(C)CC[C@H](O[C@@H]6O[C@H](CO[C@@H]7OC[C@H](O)[C@H](O)[C@H]7O[C@@H]7OC[C@@H](O)[C@H](O)[C@H]7O)[C@@H](O)[C@H](O)[C@H]6O)C(C)(C)[C@@H]5CC[C@@]4(C)[C@]3(C)C[C@@H](O)[C@@]23C[C@@H]1OC3=O` [Albiziasaponin A (50), Albiziasaponin A], for which the Sweetness/potency in series [2] is listed as 5.
`CC1(C(=O)O)C=C2C3CCC4C5(C=O)CCC(OC6OC(C(=O)O)C(O)C(O)C6OC6OCC(O)C(O)C6O)C(C)(C)C5CCC4(C)C3(C)CCC2(C)CC1` (stereo not shown) [Periandrin V (61), Periandrin V]: the Sweetness/potency in series [2] is on record as 220.
As to `C[C@@H]1O[C@@H](O[C@H]2[C@H](Oc3cc(O)c(C(=O)CCc4ccc(O)cc4)c(O)c3)O[C@H](CO)[C@@H](O)[C@@H]2O)[C@H](O)[C@H](O)[C@H]1O` [Naringin dihydrochalcone (81), Naringin dihydrochalcone], the Sweetness/potency in series [2] was 300.
Regarding “Cyclocarioside A [Cyclocarioside A (47)]”, the Sweetness/potency in series [2] was 200.
For the molecule `COc1ccc(CCC(=O)c2c(O)cc(O[C@@H]3O[C@H](CO)[C@@H](O)[C@H](O)[C@H]3O[C@@H]3O[C@@H](C)[C@H](O)[C@@H](O)[C@H]3O)cc2O)cc1O` [Neohesperidin dihydrochalcone (82), Neohesperidin dihydrochalcone], the Sweetness/potency in series [2] is reported as 1,000.
Turning to `OCCN1C[C@H](O)[C@@H](O)[C@H](O)[C@H]1CO` [miglitol], the “increase in GLP-1” value in series [3] is given as “synergistic”.
On to `CC1(C)[C@@H](O[C@H]2O[C@H](C(=O)O)[C@@H](O)[C@H](O)[C@H]2O[C@@H]2OC[C@H](O)[C@H](O)[C@H]2O)CC[C@]2(C)[C@H]3C(=O)C=C4[C@@H]5C[C@@](C)(C(=O)O)CC[C@]5(C)CC[C@@]4(C)[C@]3(C)CC[C@@H]12` [Araboglycyrrhizin (56), Araboglycyrrhizin], for which the Sweetness/potency in series [2] is 150.
Turning to `C/C(=C\CC[C@@H](C)[C@H]1CC[C@@]2(C)[C@@H]3CC=C4[C@@H](CC[C@H](O[C@@H]5O[C@H](CO)[C@@H](O)[C@H](O)[C@H]5O)C4(C)C)[C@]3(C)[C@H](O)C[C@]12C)CO[C@@H]1O[C@H](CO[C@@H]2O[C@H](CO)[C@@H](O)[C@H](O)[C@H]2O)[C@@H](O)[C@H](O)[C@H]1O` [Carnosifloside VI (36), Carnosifloside VI], in series [2], the Sweetness/potency is listed as 77.
“Cyclocaryoside I [Cyclocaryoside I (48)]”: the Sweetness/potency in series [2] is listed as 250.
Turning to Periandrin IV [Periandrin IV (60)], in series [2], the Sweetness/potency is recorded as 85.
For `COc1c(O)cc2c(c1O)C(=O)[C@H](OC(C)=O)[C@@H](c1ccc(O)cc1)O2` [(2R,3R)-2,3-Dihydro-5,7,4′-trihydroxy-6-methoxy-3-O-acetylflavonol], the Sweetness/potency in series [2] is 20.
In the case of `COc1ccc([C@H]2Cc3cccc(O)c3C(=O)O2)cc1O` [Phyllodulcin (3), Phyllodulcin], the Sweetness/potency in series [2] was 400.
Consider Rebaudioside B [Rebaudioside B (16)], for which the Sweetness/potency in series [2] is 150.
Consider `O=C/C=C/c1ccccc1` [Trans-Cinnamaldehyde (79), Trans-Cinnamaldehyde], for which the Sweetness/potency in series [2] is on record as 50.
On to `COC(=O)[C@H]1O[C@@H](O[C@H]2[C@H](O[C@H]3CC[C@]45C[C@]46CC[C@]4(C)[C@@H]([C@H](C)[C@@H]7CC=C(C)C(=O)O7)CC[C@@]4(C)[C@@H]6CC[C@H]5[C@]3(C)C(=O)O)O[C@H](CO)[C@@H](O)[C@@H]2O)[C@H](O)[C@@H](O)[C@@H]1O` [Abrusoside B (43), Abrusoside B], for which, in series [2], the Sweetness/potency is listed as 100.
Regarding `CC1(C(=O)O)CCC2(C)CCC3(C)C(=CC(=O)C4C5(C)CCC(OC6OC(C(=O)O)C(O)C(O)C6OC6OCC(O)(CO)C6O)C(C)(C)C5CCC43C)C2C1` (stereo not shown) [Apioglycyrrhizin (55), Apioglycyrrhizin], the Sweetness/potency in series [2] is listed as 300.
